Measured values: article PMC8289861 (Scientific Reports, 2021)

Columns and labels:
Caco-2 cells [1] = settings: cited from earlier work
[2] = tested on: colon-derived human cells (NCM460 and HT-29MTX); settings: cited from earlier work
Caco-2 cells [3] = tested on: Caco-2 cells
[4] = cited from earlier work
[5] = parameters: method as in PMID 25283090; settings: in vivo studies; cited from earlier work
[6] = cited from earlier work; remark: listed apart in the source

Question: For `O=[As]O[As]=O` (stereo not shown) [As, arsenic oxide (As III)], which Papp (Caco-2 cells [1]; at 2 h, concentration 67 μM) is on record?
Answer: 4.6 ± 0.3 × 10^–6 cm/s

Question: And the “decrease of Papp values” [2]?
Answer: 63%

Question: And the “decrease in the permeability as measured by Papp” value (from here on “decrease in the permeability”) (Caco-2 cells [3])?
Answer: 7.5%

Question: And the “decrease of Papp values” (Caco-2 cells [3])?
Answer: 7.5%

Question: Which “decrease in the cellular accumulation” value (Caco-2 cells [1]) does the source give for `[CH3][Hg]` [CH3Hg] here?
Answer: up to 55%

Question: Which “Cd accumulated in the Caco-2 cells” value (Caco-2 cells [1]; Caco-2) does the source give for `CC(=O)[O-].CC(=O)[O-].[Cd+2]` [Cd, cadmium acetate] here?
Answer: 6-12%

Question: And the “lag time during which transport into the basolateral compartment was undetectable” value (Caco-2 cells [1])?
Answer: about 60 min

Question: And the “reduction of ML in the basolateral chamber” value (Caco-2 cells [1])?
Answer: 90%

Question: What about the “decrease in the permeability” value (Caco-2 cells [3]) of the same compound?
Answer: 6.3%

Question: What about the “decrease of Papp values” (Caco-2 cells [3]) of the same compound?
Answer: 6.3%

Question: For `[Cl][Cd][Cl]` [CdCl2], which “Cd taken up (retained in the cells and transferred through cells) by Caco-2 cells” value (Caco-2 cells [1]; Caco-2) is on record?
Answer: 25%

Question: Which “Properties: water solubility” value [4] does the source give for `O=S(=O)(O)CC(S)CS` (stereo not shown) [DMPS, 2,3-dimercapto-1-propanesulfonic acid] here?
Answer: C3H8O3S3 M.wt; 188.289g/mol Water soluble

Question: For `[Cl][Hg][Cl]` [Hg, mercuric chloride], which cell retention (Caco-2 cells [1]) is on record?
Answer: 49–69%

Question: What about the cellular accumulation (Caco-2 cells [1]) of the same compound?
Answer: 21–51%

Question: What about the “transport to the basal compartment” value (Caco-2 cells [1]) of the same compound?
Answer: 3–14%

Question: What about the “transport to the basolateral side” value (Caco-2 cells [1]) of the same compound?
Answer: 9–20%

Question: And the absorption in vivo [5]?
Answer: < 15%

Question: And the “decrease in the permeability” value (Caco-2 cells [3])?
Answer: 8.2%

Question: What about the “decrease of Papp values” (Caco-2 cells [3]) of the same compound?
Answer: 7.9%

Question: Which “Pb absorbed (associated and transported by Caco-2 cells)” value (Caco-2 cells [1]; Caco-2) does the source give for `CC(=O)[O-].CC(=O)[O-].[Pb+2]` [Pb, lead acetate] here?
Answer: 30%

Question: And the “Pb moved through the single layer” value (Caco-2 cells [1])?
Answer: 3%

Question: And the “Pb retained by the cells” value (Caco-2 cells [1])?
Answer: approximately 27%

Question: And the “reduction of ML in the basolateral chamber” value (Caco-2 cells [1])?
Answer: 50%

Question: What about the absolute bioavailability ([6]; estimated from Pb concentration in blood) of the same compound?
Answer: 2.7%

Question: And the “fish meal Pb found in kidney” value ([6]; kidney)?
Answer: 1.4%

Question: What about the “fish meal Pb found in liver” value ([6]; liver) of the same compound?
Answer: 0.9%

Question: And the “decrease in the permeability” value (Caco-2 cells [3])?
Answer: 7.9%

Question: What about the “decrease of Papp values” (Caco-2 cells [3]) of the same compound?
Answer: 8.2%
